Results taken from US20060128666A1, “Use of sphingomyelin and lyso-sphingomyelin as absorption enhancers” (priority 2003, published 2006).

Columns and labels:
[1] = test system: confluent Caco-2 cell layers; assay: Transport of nutrients and bisphosphonates through confluent Caco-2 cell layers in two-compartment transport system, in presence of sphingolipid; type: in vitro ADME, human; conditions: for Transport velocity of testosterone / Velocity measured/Control velocity, testosterone: nutrient testosterone 10 μM
Protocol: GlySar, mannitol, testosterone, caffeine and cholesterol were tested at a concentration of 10 μM. This concentration was reached by mixing “cold” and radioactively labeled test substrate (mannitol, testosterone and cholesterol) or by testing the radioactively labeled substrate alone (GlySar and caffeine).
In general, the experiments were carried out in the presence and in the absence of 0.03 wt. % of bile. If bile was used in an experiment, this is explicitly stated in the results.
For the present transport studies, Caco-2 cells (passage 34) were seeded on semi-permeable filter inserts (12-well Transwell™ plates, 0.4 μm pores, Corning Costar) at 100,000 cells.per filter (growth surface 1.13 cm^2 containing 2.5 ml of culture medium). The number of cells was counted using a Bürker-Türk count chamber. The cells on the inserts were grown for 21 days at 37° C. in a humidified incubator in an atmosphere of air containing 5% of CO2. During such a culture period, the cells undergo an enterocyte-like differentiation.
Three filter inserts were used per experimental group.
The radioactivity in all samples was determined as DPM (disintegrations per minute), using an LKB/Wallac S1409 scintillation counter. The amount of radioactivity was determined in the 100-μl samples of the dose compartments and in the 500-μl samples of the receptor compartments.
In the experiments whose results are shown in Table 1, phytosphingosine was added as 0.02 wt. % (0.6 μM), ceramide III as 0.02 wt. % (0.3 μM), lysosphingomyelin as 0.008 wt. % (0.2 μM), sphinganine as 0.02 wt. % (0.6 μM) sphingosine as 0.02 wt. % (0.6 μM), egg sphingomyelin as 0.02 wt. % (0.3 μM) and glucosylceramide III as 0.02 wt. % (0.3 μM).

Caco-2 cell layers = assay: Transport of the lipids themselves from apical to basolateral side of Caco-2 cell layer; conditions: 19 μg/ml lysosphingomyelin or 16.6 μg/ml phytosphingosine added to apical compartment
Protocol: The effect on transport and the transport of lipids was tested with 0.02 wt. % in transport medium (except for lysosphingomyelin and cerebroside, of which 0.008 wt. % and 0.01 wt. %, respectively, were used). Stock solutions of the test compounds were prepared in ethanol. The stock solutions were diluted in transport medium to a final concentration of 2% (v/v) ethanol in transport medium.
The culture medium was removed from the filter inserts (apical compartment) and from under the filter inserts (basolateral compartment). The inserts were washed using phosphate-buffered saline (PBS) and were moved to a new 12-well plate, whose wells had been filled with 1.8 ml of transport medium (DMEM without phenol red, non-essential amino acids (1% v/v), L-glutamine (2 mM) and gentamicin (50 μg/ml)). The transport study was started by filling the apical chamber with 600 μl of the dosed solution. A sample of 100 μl from the apical compartment was collected directly after administration of the dosage. The 12-well plate with the filter inserts was incubated on a rotating platform (60 rpm) in a humidified incubator at 37° C. under an atmosphere of 5% of CO2 in air. Samples (500 μl) from the basolateral compartment were collected at 15, 30, 60 and 120 min after the start of the transport study. […]

[2] = bisphosphonate EB1053 10 μM, no bile, lysosphingomyelin 0.008 wt. %
[3] = bisphosphonate EB1053 at 10× conc., no bile, lysosphingomyelin 0.008 wt. %
[4] = bisphosphonate d-ADP 10 μM, no bile, lysosphingomyelin 0.008 wt. %
[5] = bisphosphonate d-ADP at 10× conc., no bile, lysosphingomyelin 0.008 wt. %
[6] = nutrient GlySar 10 μM, additive 0.03% bile, lysosphingomyelin 0.008 wt. %
[7] = nutrient caffeine 10 μM, additive 0.03% bile, lysosphingomyelin 0.008 wt. %
[8] = nutrient cholesterol 10 μM, additive 0.03% bile, test lipid 0.02 wt. % (lysosphingomyelin 0.008 wt. %)
[9] = nutrient mannitol 10 μM, additive 0.03% bile, lysosphingomyelin 0.008 wt. %
[10] = additive 0.03% bile, lysosphingomyelin 0.008 wt. %
[11] = no bile, test lipid 0.02 wt. % (lysosphingomyelin 0.008 wt. %)

Protocol for Caco-2 cell monolayers: After 21 days of cell culture, the transepithelial electrical resistance (TEER) of the monolayers was used to check on the growth and differentiation of the Caco-2 cells on the filters (Duizer et al., J. Contr. Release 49: 39-49, 1997). The TEER is a measure for the differentiation status of the monolayer and was measured by means of the Millicell-ERS epithelial volt ohm meter (Millipore Co., Bedford, USA). Only monolayers having a TEER higher than 500 Ω.cm^−2 were used in the transport experiments.
Three filter inserts were used per experimental group. The integrity of all monolayers of Caco-2 cells used in this study was determined by measuring the transepithelial electrical resistance (TEER).

CCCCCCCCCCCCC/C=C/[C@@H](O)[C@@H](N)COP(=O)([O-])OCC[N+](C)(C)C [lysosphingomyelin, sphingosyl-phosphorylcholine]
Transport velocity of EB1053 [1, 2]: 371 ± 17 cm · hour^−1 × 10^−7 | Velocity measured/Control velocity, EB1053 [1, 2]: 12.2 | Transport velocity of EB1053 (10× conc.) [1, 3]: 414 ± 13 cm · hour^−1 × 10^−7 | Velocity measured/Control velocity, EB1053 (10× conc.) [1, 3]: 12.1 | Transport velocity of d-ADP [1, 4]: 922 ± 10 cm · hour^−1 × 10^−7 | Velocity measured/Control velocity, d-ADP [1, 4]: 4.9 | Transport velocity of d-ADP (10× conc.) [1, 5]: 498 ± 8 cm · hour^−1 × 10^−7 | Velocity measured/Control velocity, d-ADP (10× conc.) [1, 5]: 6.1 | Increase of EB-1053 transport (times faster) ([1]; in presence of 0.008% (w/v) lysosphingomyelin): 12 times | Transport velocity of GlySar [1, 6]: 35.4 ± 2.4 cm · hour^−1 × 10^−7 | Velocity measured/Control velocity, GlySar [1, 6]: 1 | Transport velocity of GlySar ([1]; nutrient GlySar 10 μM, no bile, test lipid 0.02 wt. % (lysosphingomyelin 0.008 wt. %)): 79.7 ± 28.1 cm · hour^−1 × 10^−7 | Transport velocity of caffeine [1, 7]: 560 ± 29 cm · hour^−1 × 10^−7 | Velocity measured/Control velocity, caffeine [1, 7]: 1 | Transport velocity of caffeine ([1]; nutrient caffeine 10 μM, no bile, test lipid 0.02 wt. % (lysosphingomyelin 0.008 wt. %)): 559 ± 38 cm · hour^−1 × 10^−7 | Transport velocity of cholesterol [1, 8]: 1.25 (n = 1) cm · hour^−1 × 10^−7 | Velocity measured/Control velocity, cholesterol [1, 8]: 1 | Transport velocity of mannitol [1, 9]: 12.3 ± 1.8 cm · hour^−1 × 10^−7 | Velocity measured/Control velocity, mannitol [1, 9]: 1 | Transport velocity of mannitol ([1]; nutrient mannitol 10 μM, no bile, test lipid 0.02 wt. % (lysosphingomyelin 0.008 wt. %)): 120 ± 9 cm · hour^−1 × 10^−7 | Transport velocity of testosterone [1, 10]: 576 ± 24 cm · hour^−1 × 10^−7 | Velocity measured/Control velocity, testosterone [1, 10]: 1 | Transport velocity of testosterone [1, 11]: 536 ± 21 cm · hour^−1 × 10^−7 | Velocity measured/Control velocity, testosterone [1, 11]: 1 | Resistance between the apical and basolateral liquids (Caco-2 cell monolayers): decrease

CCCCCCCCCCCCCC[C@@H](O)[C@@H](O)[C@@H](N)CO [phytosphingosine]
Lipid still demonstrated in the apical liquid after 120 minutes (Caco-2 cell layers): 12.9 µg/mL | Lipid in the basolateral liquids (apical to basolateral transport of lipid) (Caco-2 cell layers; 120 minutes): no lipids could be demonstrated
